According to ChEMBL document CHEMBL5634128, “Development of chalcone-like derivatives and their biological and mechanistic investigations as novel influenza nuclear export inhibitors” (Eur J Med Chem, 2023):
Active and inactive are the calls of the source. The rule behind the calls is not given here.

Experiments:
Influenza A virus [1] = assay: Anti-influenza activity against Influenza A virus A/Goose/Guangdong/SH7/2013 (H5N1) infected in chicken embryo fibroblast assessed as inhibition of virus-induced cytopathic effect; format: functional
[2] = Cytotoxicity against chicken embryo fibroblast cells assessed as reduction in cell growth at 50 uM by CCK-8 assay relative to control; format: toxicity, cell-based, Gallus gallus; settings: chicken embryo fibroblast cells, read-out: Activity
Influenza A virus [3] = assay: Anti-influenza activity against Influenza A virus H5N1 infected in chicken embryo fibroblast assessed as reduction in viral growth; format: functional, organism-based
[4] = Cytotoxicity against chicken embryo fibroblast cells assessed as reduction in cell growth by CCK-8; format: toxicity, cell-based, Gallus gallus
Influenza A virus [5] = assay: Anti-influenza activity against Influenza A virus H5N8 infected in chicken embryo fibroblast assessed as reduction in viral growth; format: functional, organism-based
Influenza A virus [6] = assay: Anti-influenza activity against Influenza A virus A/Goose/Guangdong/SH7/2013 (H5N1) infected in chicken embryo fibroblast at MOI 1 assessed as decrease in ratio of cytoplasmic to nuclear NP level at 10 uM measured after 10 hr post infection by Western blot analysis; format: functional, organism-based
Influenza A virus [7] = assay: Anti-influenza activity against Influenza A virus B/Yamagata infected in chicken embryo fibroblast assessed as reduction in viral growth; format: functional, organism-based
[8] = Binding affinity to influenza A virus NS2 assessed as dissociation constant by SPR analysis
Influenza A virus [9] = assay: Anti-influenza activity against Influenza A virus A/Brisbane/10/2007 infected in chicken embryo fibroblast assessed as reduction in viral growth; format: functional, organism-based; settings: A/Brisbane/10/2007, Fibroblast
[10] = Binding affinity to influenza A virus M1 assessed as dissociation constant by SPR analysis
Influenza A virus [11] = assay: Anti-influenza activity against Influenza A virus pdm09 infected in chicken embryo fibroblast assessed as reduction in viral growth; format: functional, organism-based
Influenza A virus [12] = assay: Anti-influenza activity against Influenza A virus A/Goose/Guangdong/SH7/2013 (H5N1) infected in chicken embryo fibroblast at MOI 1 assessed as distribution of NP in nucleus at 10 uM measured after 10 hr post infection by DAPI staining based assay; format: functional, organism-based
[13] = biological target: Exportin-1 (Homo sapiens) (UniProt O14980); assay: Inhibition of CRM1-mediated nuclear export in human A549 cells assessed as distribution of GFP-tagged AID in cytoplasm at 20 uM administered for 12 hrs and measured after 24 hrs by fluorescence microscopy analysis; format: cell-based
Influenza A virus [14] = assay: Anti-influenza activity against Influenza A virus A/Goose/Guangdong/SH7/2013 (H5N1) infected in chicken embryo fibroblast at MOI 1 assessed as reduction in NP expression in nucleus at 10 uM measured after 10 hr post infection by Western blot analysis; format: functional, organism-based
[15] = biological target: Exportin-1 (Homo sapiens) (UniProt O14980); assay: Inhibition of CRM1-mediated nuclear export in human A549 cells assessed as distribution of GFP-tagged AID in nucleus at 20 uM administered for 12 hrs and measured after 24 hrs by fluorescence microscopy analysis; format: cell-based; settings: time 36.0 hrs
Influenza A virus [16] = assay: Anti-influenza activity against Influenza A virus A/Goose/Guangdong/SH7/2013 (H5N1) infected in chicken embryo fibroblast at MOI 1 assessed as reduction in NP expression in cytoplasm at 10 uM measured after 10 hr post infection by Western blot analysis; format: functional, organism-based
Nucleoprotein = Nucleoprotein (Influenza A virus (strain A/Wilson-Smith/1933 H1N1), UniProt P15682); assay: Binding affinity to influenza A virus Nucleoprotein assessed as dissociation constant by SPR analysis
Influenza A virus [17] = assay: Anti-influenza activity against Influenza A virus B/Victoria infected in chicken embryo fibroblast assessed as reduction in viral growth; format: functional, organism-based
[18] = biological target: Single-stranded DNA cytosine deaminase (Homo sapiens) (UniProt Q9GZX7); assay: Induction of GFP-tagged AID degradation in human A549 cells at 20 uM; format: cell-based
Influenza A virus [19] = assay: Anti-influenza activity against Influenza A virus A/PR/8/34 infected in chicken embryo fibroblast assessed as reduction in viral growth; format: functional, organism-based; settings: A/PR/8/34, Fibroblast

Chain of Exportin-1 (Homo sapiens) (O14980 whole entry): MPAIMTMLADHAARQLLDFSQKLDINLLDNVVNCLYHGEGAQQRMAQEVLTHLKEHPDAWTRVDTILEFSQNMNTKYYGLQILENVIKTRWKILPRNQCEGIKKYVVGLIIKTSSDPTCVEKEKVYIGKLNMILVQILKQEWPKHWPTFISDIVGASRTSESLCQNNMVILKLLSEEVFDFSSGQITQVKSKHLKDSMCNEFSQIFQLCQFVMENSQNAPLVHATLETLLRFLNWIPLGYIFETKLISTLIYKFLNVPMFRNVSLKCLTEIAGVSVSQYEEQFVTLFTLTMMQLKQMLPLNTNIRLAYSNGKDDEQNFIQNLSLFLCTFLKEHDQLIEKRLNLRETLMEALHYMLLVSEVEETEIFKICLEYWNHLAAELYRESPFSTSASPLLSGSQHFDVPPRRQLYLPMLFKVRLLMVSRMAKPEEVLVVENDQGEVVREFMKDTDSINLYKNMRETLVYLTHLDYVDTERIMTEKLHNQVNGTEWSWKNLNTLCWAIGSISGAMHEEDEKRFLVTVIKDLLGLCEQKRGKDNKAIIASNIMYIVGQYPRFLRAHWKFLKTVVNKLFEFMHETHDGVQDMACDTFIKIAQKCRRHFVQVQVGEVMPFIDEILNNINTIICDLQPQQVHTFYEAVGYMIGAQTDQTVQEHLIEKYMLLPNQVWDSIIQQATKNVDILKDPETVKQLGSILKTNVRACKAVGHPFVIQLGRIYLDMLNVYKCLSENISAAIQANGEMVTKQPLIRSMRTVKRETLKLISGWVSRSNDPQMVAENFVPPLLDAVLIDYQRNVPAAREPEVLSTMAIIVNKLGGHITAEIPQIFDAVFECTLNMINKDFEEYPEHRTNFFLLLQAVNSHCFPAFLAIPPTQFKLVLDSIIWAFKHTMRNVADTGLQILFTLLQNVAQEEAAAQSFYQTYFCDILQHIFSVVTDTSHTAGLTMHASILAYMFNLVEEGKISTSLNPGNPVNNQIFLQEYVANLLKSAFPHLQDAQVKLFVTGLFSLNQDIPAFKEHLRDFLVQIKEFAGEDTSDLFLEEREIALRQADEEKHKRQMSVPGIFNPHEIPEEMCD
Chain of Nucleoprotein (P15682 whole entry): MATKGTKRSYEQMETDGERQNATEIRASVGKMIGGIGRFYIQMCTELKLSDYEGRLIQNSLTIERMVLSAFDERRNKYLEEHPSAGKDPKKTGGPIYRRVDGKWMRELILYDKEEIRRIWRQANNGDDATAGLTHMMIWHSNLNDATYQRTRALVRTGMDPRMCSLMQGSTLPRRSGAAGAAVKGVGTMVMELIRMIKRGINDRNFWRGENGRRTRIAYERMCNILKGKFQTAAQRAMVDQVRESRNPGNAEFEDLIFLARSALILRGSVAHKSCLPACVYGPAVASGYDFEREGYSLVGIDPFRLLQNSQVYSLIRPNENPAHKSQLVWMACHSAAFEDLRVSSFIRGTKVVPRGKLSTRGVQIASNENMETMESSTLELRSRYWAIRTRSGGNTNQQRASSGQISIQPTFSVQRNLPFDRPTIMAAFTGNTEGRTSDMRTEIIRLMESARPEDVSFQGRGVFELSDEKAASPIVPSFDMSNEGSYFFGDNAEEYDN
Chain of Single-stranded DNA cytosine deaminase (Homo sapiens) (Q9GZX7 whole entry): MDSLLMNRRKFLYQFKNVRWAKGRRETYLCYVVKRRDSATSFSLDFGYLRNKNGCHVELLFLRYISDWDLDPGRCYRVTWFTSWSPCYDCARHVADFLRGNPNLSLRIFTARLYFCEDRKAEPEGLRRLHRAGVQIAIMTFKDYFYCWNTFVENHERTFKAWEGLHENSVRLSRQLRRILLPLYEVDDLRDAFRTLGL

Compound | inhibition (INH) (Influenza A virus [1]) | percent cell viability relative to control at 50 µM [2] | other results
COc1cccc(OC)c1C(=O)N/N=C/c1ccc([N+](=O)[O-])cc1 | 50.3% | 71.7% | 
COc1cccc(OC)c1/C=C/C(=O)/C=C/c1ccc(-c2ccccc2)c(C)c1 | 58.93% | 113% | 
COc1ccc(/C=C/C(=O)/C=C/c2c(OC)cccc2OC)cc1-c1ccccc1 | 35.03% | 85% | 
COc1cccc(OC)c1C(=O)CCc1ccccn1 | 27.71% | 74.6% | 
COc1cccc(OC)c1C(=O)N/N=C/c1ccc(C)cc1 | 47.74% | 61.2% | 
COc1cccc(OC)c1/C=C/C(=O)/C=C/c1cccc(N2CCOCC2)c1 | 71.53% | 69.5% | 
COc1cccc(OC)c1C(=O)CCc1ccc(C)cc1 | 29.55% | 65% | 
COc1cccc(OC)c1/C=C/C(=O)/C=C/c1ccc(-n2ccnc2C)cc1 | 28.99% | 61% | 
COc1cccc(OC)c1/C=C/C(=O)/C=C/c1ccc(N(C)C)cc1 | 75.34% | 110% | EC50 (Influenza A virus [3]): 20.9 µM; CC50 [4]: > 100 µM; EC50 (Influenza A virus [5]): 16 µM
COc1cccc(OC)c1/C=C/C(=O)/C=C/c1ccc(-c2cccnc2)cc1 | 25.98% | 111% | 
COc1cc(/C=C/C(=O)/C=C/c2c(OC)cccc2OC)ccc1-c1ccccc1 | 54.77% | 126% | 
COc1cccc(OC)c1C(=O)N/N=C/c1ccc(C(C)(C)C)cc1 | 38.93% | 57.7% | 
CCCOc1ccc(/C=C/C(=O)/C=C/c2c(OC)cccc2OC)cc1 | 41.16% | 149% | 
CCOc1ccc(/C=C/C(=O)/C=C/c2c(OC)cccc2OC)cc1 | 51.33% | 117% | Activity (Influenza A virus [6]): Active; EC50 (Influenza A virus [7]): 4.82 µM; Kd [8]: Not Active; EC50 (Influenza A virus [9]): 3.69 µM; Kd [10]: Not Active; EC50 (Influenza A virus [11]): 4.56 µM; Activity (Influenza A virus [12]): Active; inhibition [13]: inactive; Activity (Influenza A virus [14]): Active; EC50 (Influenza A virus [3]): 14.9 µM; inhibition [15]: inactive; Activity (Influenza A virus [16]): Active; CC50 [4]: > 100 µM; Kd (Nucleoprotein): 0.239 µM; EC50 (Influenza A virus [17]): 3.13 µM; EC50 (Influenza A virus [5]): 9.6 µM; Activity [18]: Active; EC50 (Influenza A virus [19]): 7.31 µM
COc1cccc(OC)c1/C=C/C(=O)/C=C/c1ccc(-c2ccccc2)cc1C | 23.04% | 110% | 
COc1cccc(OC)c1C(=O)CCc1ccc([N+](=O)[O-])cc1 | 2.26% | 61% | 
COc1cccc(OC)c1C(=O)N/N=C/c1ccccn1 | 13.78% | 81.9% | 
COc1cccc(OC)c1C(=O)C1OC1c1nc(C)c(C)nc1C (centres undefined) | 5.53% | 64.6% | 
COc1cccc(OC)c1/C=C1\CCC/C(=C\c2ccc(C(C)(C)C)cc2)C1=O | 57.57% | 61.1% | 
COc1cccc(OC)c1C(=O)C1OC1c1ccccn1 (centres undefined) | 27.71% | 71.8% | 
COc1cccc(OC)c1/C=C/C(=O)/C=C/c1ccc(-c2ccccc2)cc1 | 51.69% | 104% | 
COc1cccc(OC)c1/C=C/C(=O)/C=C/c1ccc(N2CCCCC2)cc1 | 60.7% | 110% | 
COc1cccc(OC)c1C(=O)N/N=C/c1nc(C)c(C)nc1C | 62.26% | 85% | 
COc1cccc(OC)c1/C=C/C(=O)/C=C/c1ccccn1 | 70.92% | 110% | 
COc1cccc(OC)c1/C=C1\CCC/C(=C\c2ccc(C)cc2)C1=O | 46.7% | 67.2% | 

Compound | inhibition (INH) (Influenza A virus [1]) | percent cell viability relative to control at 50 µM [2] | other results
COc1cccc(OC)c1/C=C/C(=O)/C=C/c1ccc(C)cc1 | 70.3% | 97.3% | 
COc1cccc(OC)c1/C=C1\CCC/C(=C\c2ccc([N+](=O)[O-])cc2)C1=O | 48.07% | 66.9% | 
COc1cccc(OC)c1/C=C/C(=O)/C=C/c1c(C)cc(-c2ccccc2)cc1C | 27.71% | 108% | 
CCC(=C/[C@H](C)C/C=C/C(C)=C/[C@@H](C)C(=O)[C@@H](C)[C@H](O)[C@@H](C)C/C(C)=C/C(=O)O)/C=C/[C@@H]1OC(=O)C=C[C@@H]1C |  |  | inhibition [15]: Active
COc1cccc(OC)c1/C=C/C(=O)/C=C/c1ccc(N2CCCC2)cc1 | 62.89% | 133% | 
COc1cccc(OC)c1C(=O)CCc1nc(C)c(C)nc1C | 18.14% | 71% | 
COc1cccc(OC)c1C(=O)CCc1ccc(C(C)(C)C)cc1 | 13.17% | 96.4% | 
COc1cccc(OC)c1/C=C/C(=O)/C=C/c1ccc(-n2cccn2)cc1 | 37.85% | 104% | 
Cc1onc(-c2ccccc2)c1C(=O)N1CCN(c2ccc([N+](=O)[O-])cc2Cl)CC1 [NUCLEOZIN] |  |  | Kd [8]: Not Active; Kd [10]: Not Active; Kd (Nucleoprotein): 0.014 µM
COc1cccc(OC)c1C(=O)C1OC1c1ccc(C)cc1 (centres undefined) | 35.03% | 62.5% | 
CCN(CC)c1ccc(/C=C/C(=O)/C=C/c2c(OC)cccc2OC)cc1 | 71.5% | 117% | EC50 (Influenza A virus [3]): 18.1 µM; CC50 [4]: > 100 µM; EC50 (Influenza A virus [5]): 13.6 µM
COc1cccc(OC)c1/C=C1\CCC/C(=C\c2ccccn2)C1=O | 25.98% | 85% | 
COc1cccc(OC)c1/C=C/C(=O)/C=C/c1ccc([N+](=O)[O-])cc1 | 70.62% | 99.5% | 
COc1cccc(OC)c1/C=C/C(=O)/C=C/c1nc(C)c(C)nc1C | 71.53% | 83.8% | 
COc1cccc(OC)c1C(=O)/C=C/c1nc(C)c(C)nc1C |  | 39.1% | EC50 (Influenza A virus [7]): 2.47 µM; EC50 (Influenza A virus [9]): 3.69 µM; EC50 (Influenza A virus [11]): 1.34 µM; EC50 (Influenza A virus [3]): 7.34 µM; CC50 [4]: < 50 µM; EC50 (Influenza A virus [17]): 3.87 µM; EC50 (Influenza A virus [5]): 10.8 µM; EC50 (Influenza A virus [19]): 3.51 µM
COc1cccc(OC)c1/C=C/C(=O)/C=C/c1ccc(-c2nccs2)cc1 | 60.3% | 106% | 
COc1cccc(OC)c1C(=O)C1OC1c1ccc(C(C)(C)C)cc1 (centres undefined) | 28.99% | 85.8% | 
COc1cccc(OC)c1C(=O)C1OC1c1ccc([N+](=O)[O-])cc1 (centres undefined) | 13.17% | 61% | 
COc1cccc(OC)c1/C=C/C(=O)/C=C/c1ccc(C(C)(C)C)cc1 | 72.89% | 86% | 
COc1cccc(OC)c1/C=C/C(=O)/C=C/c1ccc(-n2ccnc2)cc1 | 18.14% | 106% | 
COc1cccc(OC)c1/C=C/C(=O)/C=C/c1ccccc1N1CCOCC1 | 73.17% | 63.3% | 
COc1cccc(OC)c1/C=C/C(=O)/C=C/c1ccc(N2CCN(C)CC2)cc1 | 57.74% | 94.7% | 
COc1ccc(/C=C/C(=O)/C=C/c2c(OC)cccc2OC)cc1 | 26.89% | 108% | 
COc1cccc(OC)c1/C=C1\CCC/C(=C\c2nc(C)c(C)nc2C)C1=O | 57.06% | 72.4% | 
